# pEC50: −log10 of the molar value. Active and inactive are the calls of the source. The calls are words filed in the database; no cut-off is given here. Non-standard residues stand in square brackets, D forms with d. Residues, ends and D or L forms follow the SMILES beside them. ξ: configuration not given here. Cha = N[C@@H](CC1CCCCC1)C(=O)O; ξNle = CCCCC(N)C(=O)O
# Assays:
# [1] = biological target: T1, Glucagon-like peptide 2 receptor (Homo sapiens, UniProt O95838); test: Agonist activity at human GLP2R expressed in HEK293 cells after 5 hrs by luciferase reporter gene assay; format: cell-based
# T1 sequence (O95838 whole entry): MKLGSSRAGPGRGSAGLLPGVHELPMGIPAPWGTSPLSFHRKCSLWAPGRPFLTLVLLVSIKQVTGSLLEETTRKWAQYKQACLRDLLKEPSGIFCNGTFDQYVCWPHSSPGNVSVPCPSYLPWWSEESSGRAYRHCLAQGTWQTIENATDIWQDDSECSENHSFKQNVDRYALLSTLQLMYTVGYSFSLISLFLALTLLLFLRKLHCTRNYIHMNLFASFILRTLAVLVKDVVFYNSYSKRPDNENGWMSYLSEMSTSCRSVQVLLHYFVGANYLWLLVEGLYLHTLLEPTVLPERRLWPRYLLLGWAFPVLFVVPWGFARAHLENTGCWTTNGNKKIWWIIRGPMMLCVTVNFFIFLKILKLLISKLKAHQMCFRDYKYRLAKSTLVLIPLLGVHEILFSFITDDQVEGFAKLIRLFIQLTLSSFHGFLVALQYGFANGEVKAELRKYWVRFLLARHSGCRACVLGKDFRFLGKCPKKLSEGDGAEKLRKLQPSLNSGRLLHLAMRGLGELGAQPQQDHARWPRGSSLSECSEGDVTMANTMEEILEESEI
# HEK293 = test: Selectivity ratio of EC50 for human GLP1R expressed in HEK293 cells to EC50 for human GLP2R expressed in HEK293; format: cell-based
# [2] = Systemic clearance in Sprague-Dawley rat at 0.2 mg/kg, iv through cassette dosing measured up to 300 mins by LC/MS/MS analysis; format: ADME, organism-based; conditions: in vivo
# [3] = biological target: Glucagon receptor (Homo sapiens) (UniProt P47871); test: Agonist activity at human GCGR expressed in HEK293 cells after 5 hrs by luciferase reporter gene assay; format: cell-based
# Glucagon receptor (Homo sapiens), sequence (P47871 whole entry): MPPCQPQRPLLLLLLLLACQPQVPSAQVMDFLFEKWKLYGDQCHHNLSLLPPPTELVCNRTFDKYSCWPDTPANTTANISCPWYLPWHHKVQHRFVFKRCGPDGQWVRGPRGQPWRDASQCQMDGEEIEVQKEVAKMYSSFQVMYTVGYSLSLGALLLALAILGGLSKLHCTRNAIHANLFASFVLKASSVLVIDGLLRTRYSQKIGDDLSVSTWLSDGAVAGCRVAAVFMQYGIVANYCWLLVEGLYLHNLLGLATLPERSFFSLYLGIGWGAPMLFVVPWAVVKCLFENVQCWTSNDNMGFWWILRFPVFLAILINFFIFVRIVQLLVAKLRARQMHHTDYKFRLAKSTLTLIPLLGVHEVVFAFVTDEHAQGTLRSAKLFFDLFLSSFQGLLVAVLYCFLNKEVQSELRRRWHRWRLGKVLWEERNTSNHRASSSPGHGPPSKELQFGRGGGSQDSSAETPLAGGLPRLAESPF
# [4] = biological target: T2, Glucagon-like peptide 1 receptor (Homo sapiens, UniProt P43220); test: Agonist activity at human GLP1R expressed in HEK293 cells at 30 nM after 5 hrs by luciferase reporter gene assay; format: cell-based
# T2 sequence (P43220 whole entry): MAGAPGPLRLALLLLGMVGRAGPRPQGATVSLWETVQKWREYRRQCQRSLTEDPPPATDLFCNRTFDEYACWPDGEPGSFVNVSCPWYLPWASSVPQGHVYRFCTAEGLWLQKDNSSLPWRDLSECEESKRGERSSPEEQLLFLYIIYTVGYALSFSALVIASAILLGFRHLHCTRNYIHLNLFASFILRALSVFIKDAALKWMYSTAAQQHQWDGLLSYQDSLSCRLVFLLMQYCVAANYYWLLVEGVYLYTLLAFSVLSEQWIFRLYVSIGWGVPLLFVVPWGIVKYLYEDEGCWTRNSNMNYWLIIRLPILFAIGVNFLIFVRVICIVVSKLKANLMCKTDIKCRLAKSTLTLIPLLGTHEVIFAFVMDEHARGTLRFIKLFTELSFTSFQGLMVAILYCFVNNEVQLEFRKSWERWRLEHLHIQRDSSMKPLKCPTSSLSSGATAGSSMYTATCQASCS
# [5] = biological target: T2, Glucagon-like peptide 1 receptor; test: Agonist activity at human GLP1R expressed in HEK293 cells after 5 hrs by luciferase reporter gene assay; format: cell-based
pEC50 [1],clearance [2] [mL/min/kg],Activity [3],Efficacy [4] [%],pEC50 [5],Compound,Ratio EC50 (HEK293)
9.74,4.9,inactive,68,7.49,CCCCC(NC(=O)[C@H](CCC(=O)O)NC(=O)[C@H](CC(=O)O)NC(=O)[C@H](CO)NC(=O)[C@H](Cc1ccccc1)NC(=O)[C@H](CO)NC(=O)CNC(=O)[C@H](CC(=O)O)NC(=O)CNC(=O)[C@@H](N)Cc1cnc[nH]1)C(=O)N[C@H](Cc1ccc(O)cc1)C(=O)N[C@H](C(=O)N[C@H](C(=O)N[C@@H](CC(C)C)C(=O)N[C@@H](CC(=O)O)C(=O)N[C@@H](CC(N)=O)C(=O)N[C@@H](CC(C)C)C(=O)N[C@@H](C)C(=O)N[C@@H](C)C(=O)N[C@@H](CCCNC(=N)N)C(=O)N[C@@H](CC(=O)O)C(=O)N[C@@H](Cc1ccccc1)C(=O)N[C@H](C(=O)N[C@@H](CC(N)=O)C(=O)N[C@@H](Cc1c[nH]c2ccccc12)C(=O)N[C@@H](CC(C)C)C(=O)N[C@H](C(=O)N[C@@H](CCC(N)=O)C(=O)N[C@H](C(=O)N[C@@H](CCCCN)C(N)=O)[C@@H](C)O)[C@@H](C)CC)[C@@H](C)CC)[C@@H](C)CC)[C@@H](C)O (stereo partly drawn),170
9.96,0.32,inactive,73,7.35,CCCCC(NC(=O)[C@H](CCC(=O)O)NC(=O)[C@H](CC(=O)O)NC(=O)[C@H](CO)NC(=O)[C@H](Cc1ccccc1)NC(=O)[C@H](CO)NC(=O)CNC(=O)[C@H](CC(=O)O)NC(=O)CNC(=O)[C@@H](N)Cc1cnc[nH]1)C(=O)N[C@H](Cc1cccc(Cl)c1)C(=O)N[C@H](C(=O)N[C@H](C(=O)N[C@@H](CC(C)C)C(=O)N[C@@H](CC(=O)O)C(=O)N[C@@H](CC(N)=O)C(=O)N[C@@H](CC(C)C)C(=O)N[C@@H](C)C(=O)N[C@@H](C)C(=O)N[C@@H](CCCNC(=N)N)C(=O)N[C@@H](CC(=O)O)C(=O)N[C@@H](Cc1ccccc1)C(=O)N[C@H](C(=O)N[C@@H](CC(N)=O)C(=O)N[C@@H](Cc1c[nH]c2ccccc12)C(=O)N[C@@H](CC(C)C)C(=O)N[C@H](C(=O)N[C@@H](CCC(N)=O)C(=O)N[C@H](C(=O)N[C@@H](CCCCN)C(N)=O)[C@@H](C)O)[C@@H](C)CC)[C@@H](C)CC)[C@@H](C)CC)[C@@H](C)O (stereo partly drawn),400
10.00,1.1,inactive,49,7.10,CCCCC(NC(=O)[C@H](CCC(=O)O)NC(=O)[C@H](CC(=O)O)NC(=O)[C@H](CO)NC(=O)[C@H](Cc1ccccc1)NC(=O)[C@H](CO)NC(=O)CNC(=O)[C@H](CC(=O)O)NC(=O)CNC(=O)[C@@H](N)Cc1cnc[nH]1)C(=O)N[C@H](Cc1cccs1)C(=O)N[C@H](C(=O)N[C@H](C(=O)N[C@@H](CC(C)C)C(=O)N[C@@H](CC(=O)O)C(=O)N[C@@H](CC(N)=O)C(=O)N[C@@H](CC(C)C)C(=O)N[C@@H](C)C(=O)N[C@@H](C)C(=O)N[C@@H](CCCNC(=N)N)C(=O)N[C@@H](CC(=O)O)C(=O)N[C@@H](Cc1ccccc1)C(=O)N[C@H](C(=O)N[C@@H](CC(N)=O)C(=O)N[C@@H](Cc1c[nH]c2ccccc12)C(=O)N[C@@H](CC(C)C)C(=O)N[C@H](C(=O)N[C@@H](CCC(N)=O)C(=O)N[C@H](C(=O)N[C@@H](CCCCN)C(N)=O)[C@@H](C)O)[C@@H](C)CC)[C@@H](C)CC)[C@@H](C)CC)[C@@H](C)O (stereo partly drawn),800
10.00,1.2,inactive,80,7.40,CCCCC(NC(=O)[C@H](CCC(=O)O)NC(=O)[C@H](CC(=O)O)NC(=O)[C@H](CO)NC(=O)[C@H](Cc1ccccc1)NC(=O)[C@H](CO)NC(=O)CNC(=O)[C@H](CC(=O)O)NC(=O)CNC(=O)[C@@H](N)Cc1cnc[nH]1)C(=O)N[C@H](Cc1c[nH]c2ccccc12)C(=O)N[C@H](C(=O)N[C@H](C(=O)N[C@@H](CC(C)C)C(=O)N[C@@H](CC(=O)O)C(=O)N[C@@H](CC(N)=O)C(=O)N[C@@H](CC(C)C)C(=O)N[C@@H](C)C(=O)N[C@@H](C)C(=O)N[C@@H](CCCNC(=N)N)C(=O)N[C@@H](CC(=O)O)C(=O)N[C@@H](Cc1ccccc1)C(=O)N[C@H](C(=O)N[C@@H](CC(N)=O)C(=O)N[C@@H](Cc1c[nH]c2ccccc12)C(=O)N[C@@H](CC(C)C)C(=O)N[C@H](C(=O)N[C@@H](CCC(N)=O)C(=O)N[C@H](C(=O)N[C@@H](CCCCN)C(N)=O)[C@@H](C)O)[C@@H](C)CC)[C@@H](C)CC)[C@@H](C)CC)[C@@H](C)O (stereo partly drawn),400
9.29,0.69,inactive,83,8.05,CCCCC(NC(=O)[C@H](CCC(=O)O)NC(=O)[C@H](CC(=O)O)NC(=O)[C@H](CO)NC(=O)[C@H](Cc1ccccc1)NC(=O)[C@H](CO)NC(=O)CNC(=O)[C@H](CC(=O)O)NC(=O)CNC(=O)[C@@H](N)Cc1cnc[nH]1)C(=O)N[C@@H](CC1CCCCC1)C(=O)N[C@H](C(=O)N[C@H](C(=O)N[C@@H](CC(C)C)C(=O)N[C@@H](CC(=O)O)C(=O)N[C@@H](CC(N)=O)C(=O)N[C@@H](CC(C)C)C(=O)N[C@@H](C)C(=O)N[C@@H](C)C(=O)N[C@@H](CCCNC(=N)N)C(=O)N[C@@H](CC(=O)O)C(=O)N[C@@H](Cc1ccccc1)C(=O)N[C@H](C(=O)N[C@@H](CC(N)=O)C(=O)N[C@@H](Cc1c[nH]c2ccccc12)C(=O)N[C@@H](CC(C)C)C(=O)N[C@H](C(=O)N[C@@H](CCC(N)=O)C(=O)N[C@H](C(=O)N[C@@H](CCCCN)C(N)=O)[C@@H](C)O)[C@@H](C)CC)[C@@H](C)CC)[C@@H](C)CC)[C@@H](C)O (stereo partly drawn) (H-HGDGSFSDE[ξNle][Cha]TILDNLAARDFINWLIQTK-NH2),17
9.82,1.8,inactive,94,7.80,CCCCC(NC(=O)[C@H](CCC(=O)O)NC(=O)[C@H](CC(=O)O)NC(=O)[C@H](CO)NC(=O)[C@H](Cc1ccccc1)NC(=O)[C@H](CO)NC(=O)CNC(=O)[C@H](CC(=O)O)NC(=O)CNC(=O)[C@@H](N)Cc1cnc[nH]1)C(=O)N[C@@H](Cc1ccccc1)C(=O)N[C@H](C(=O)N[C@H](C(=O)N[C@@H](CC(C)C)C(=O)N[C@@H](CC(=O)O)C(=O)N[C@@H](CC(N)=O)C(=O)N[C@@H](CC(C)C)C(=O)N[C@@H](C)C(=O)N[C@@H](C)C(=O)N[C@@H](CCCNC(=N)N)C(=O)N[C@@H](CC(=O)O)C(=O)N[C@@H](Cc1ccccc1)C(=O)N[C@H](C(=O)N[C@@H](CC(N)=O)C(=O)N[C@@H](Cc1c[nH]c2ccccc12)C(=O)N[C@@H](CC(C)C)C(=O)N[C@H](C(=O)N[C@@H](CCC(N)=O)C(=O)N[C@H](C(=O)N[C@@H](CCCCN)C(N)=O)[C@@H](C)O)[C@@H](C)CC)[C@@H](C)CC)[C@@H](C)CC)[C@@H](C)O (stereo partly drawn),100
9.68,0.71,inactive,35,7.25,CCCCC(NC(=O)[C@H](CCC(=O)O)NC(=O)[C@H](CC(=O)O)NC(=O)[C@H](CO)NC(=O)[C@H](Cc1ccccc1)NC(=O)[C@H](CO)NC(=O)CNC(=O)[C@H](CC(=O)O)NC(=O)CNC(=O)[C@@H](N)Cc1cnc[nH]1)C(=O)N[C@@H](Cc1c[nH]c2ccccc12)C(=O)N[C@H](C(=O)N[C@H](C(=O)N[C@@H](CC(C)C)C(=O)N[C@@H](CC(=O)O)C(=O)N[C@@H](CC(N)=O)C(=O)N[C@@H](CC(C)C)C(=O)N[C@@H](C)C(=O)N[C@@H](C)C(=O)N[C@@H](CCCNC(=N)N)C(=O)N[C@@H](CC(=O)O)C(=O)N[C@@H](Cc1ccccc1)C(=O)N[C@H](C(=O)N[C@@H](CC(N)=O)C(=O)N[C@@H](Cc1c[nH]c2ccccc12)C(=O)N[C@@H](CC(C)C)C(=O)N[C@H](C(=O)N[C@@H](CCC(N)=O)C(=O)N[C@H](C(=O)N[C@@H](CCCCN)C(N)=O)[C@@H](C)O)[C@@H](C)CC)[C@@H](C)CC)[C@@H](C)CC)[C@@H](C)O (stereo partly drawn),260
9.96,0.73,inactive,36,7.00,CCCCC(NC(=O)[C@H](CCC(=O)O)NC(=O)[C@H](CC(=O)O)NC(=O)[C@H](CO)NC(=O)[C@H](Cc1ccccc1)NC(=O)[C@H](CO)NC(=O)CNC(=O)[C@H](CC(=O)O)NC(=O)CNC(=O)[C@@H](N)Cc1cnc[nH]1)C(=O)N[C@H](Cc1ccccc1Cl)C(=O)N[C@H](C(=O)N[C@H](C(=O)N[C@@H](CC(C)C)C(=O)N[C@@H](CC(=O)O)C(=O)N[C@@H](CC(N)=O)C(=O)N[C@@H](CC(C)C)C(=O)N[C@@H](C)C(=O)N[C@@H](C)C(=O)N[C@@H](CCCNC(=N)N)C(=O)N[C@@H](CC(=O)O)C(=O)N[C@@H](Cc1ccccc1)C(=O)N[C@H](C(=O)N[C@@H](CC(N)=O)C(=O)N[C@@H](Cc1c[nH]c2ccccc12)C(=O)N[C@@H](CC(C)C)C(=O)N[C@H](C(=O)N[C@@H](CCC(N)=O)C(=O)N[C@H](C(=O)N[C@@H](CCCCN)C(N)=O)[C@@H](C)O)[C@@H](C)CC)[C@@H](C)CC)[C@@H](C)CC)[C@@H](C)O (stereo partly drawn),900

# From ChEMBL document CHEMBL3822442, “Synthesis and Pharmacological Characterization of Novel Glucagon-like Peptide-2 (GLP-2) Analogues with Low Systemic Clearance” (J Med Chem, 2016)
